Test results as given in a melting point compilation (Tetko et al.).

First: Cn1c(=O)ccn(CC(=O)O)c1=O
Second: O=C(O)CS(=O)(=O)Cc1cccc(Br)c1
The melting point of the first is higher: 240 to 242 °C for the first, 173 to 175 °C for the second.

Compared with O=C(O)C(F)(F)c1ccc(F)cc1, O=C(O)c1ccc(F)nc1 is higher in melting point: 99 to 101 °C for the first, 144 to 148 °C for the second.

Compared with Cc1sc2nc(Cn3cnc([N+](=O)[O-])c3)nc(Cl)c2c1C, Cc1nc2scc(-c3ccccc3)c2c(=O)n1N is lower in melting point: 185 to 187 °C for the first, 134 to 136 °C for the second.

First: COC(=O)COc1ccc(C(=O)O)cc1
Second: O=C(O)CNC(=O)c1ccc(F)c(F)c1
The melting point of the first is lower: 172 to 174 °C for the first, 180 to 182 °C for the second.

First: NC(=S)CC(=O)NCc1ccccc1
Second: NCCC(=O)Nc1ccccc1
The melting point of the first is higher: 112 to 116 °C for the first, 62 to 64 °C for the second.

Compared with COc1ccc2cc(CO)ccc2c1, COc1ccc2cc(-c3nn(-c4ccccc4)cc3C=O)ccc2c1 is higher in melting point: 122 to 124 °C for the first, 164 to 166 °C for the second.

Compared with CC(C)C1CCC2(CC1)NC(=O)NC2=O (stereo not drawn), CCCC1CCC(=O)NC1=O (stereo not drawn) is lower in melting point: 298 to 300 °C for the first, 76 to 78 °C for the second.

First: Nc1cc(F)c(Br)cc1C(=O)O
Second: O=C(O)c1cc(S(=O)(=O)Cl)c(F)cc1F
The melting point of the first is higher: 189 to 191 °C for the first, 129 to 131 °C for the second.

First: N#Cc1cnc2ccccc2c1N
Second: Clc1ncc(Br)c2ccccc12
The melting point of the first is higher: 274 to 276 °C for the first, 98 to 100 °C for the second.

First: Cc1oc(C(=O)O)cc1C(=O)CCl
Second: CCc1oc(C(=O)O)cc1C
The melting point of the first is higher: 206 to 208 °C for the first, 133 to 135 °C for the second.

Compared with CC(O)C1CCCNC1 (stereo not drawn), CNC(=S)NC1CC1 is higher in melting point: 52 to 54 °C for the first, 108 to 110 °C for the second.

First: Cc1cc2oc(=O)cc(CCl)c2cc1C(C)C
Second: O=[N+]([O-])c1cc(CCl)c2c(c1)COCO2
The melting point of the first is higher: 132 to 134 °C for the first, 94 to 96 °C for the second.

Compared with NNC(=O)N1CCOCC1, O=S(=O)(c1ccc(OCCBr)cc1)N1CCOCC1 is higher in melting point: 121 to 123 °C for the first, 137 to 138 °C for the second.

Compared with Cc1ccc(-n2cc(S(=O)(=O)Cl)cn2)cc1S(=O)(=O)Cl, CCS(=O)(=O)c1cccc(S(=O)(=O)Cl)c1 is lower in melting point: 114 to 116 °C for the first, 92 to 94 °C for the second.

First: Cc1nn(C)c(Cl)c1C#N
Second: Cc1nn(Cc2ccccc2)c(C)c1C=O
The melting point of the first is lower: 55 to 57 °C for the first, 72 to 74 °C for the second.

Compared with OCCCNc1ccncc1, COC(=O)CCCNc1nc2ccccc2s1 is higher in melting point: 98 to 100 °C for the first, 114 to 116 °C for the second.

Compared with CC(C)(C)c1ccc(NC(N)=S)cc1, COc1ccc(NCc2cccs2)cc1 is lower in melting point: 153 to 155 °C for the first, 71 to 73 °C for the second.

Compared with CC(=O)N1CCCNc2ccccc21, O=C1NCCC1c1ccccc1 (stereo not drawn) is lower in melting point: 132 to 134 °C for the first, 82 to 84 °C for the second.

First: N#Cc1cccc(S(=O)(=O)Nc2cn[nH]c2)c1
Second: N#Cc1cccc([N+](=O)[O-])c1O
The melting point of the first is higher: 162 to 164 °C for the first, 130 to 132 °C for the second.

First: Nc1c(C(=O)O)cc(Br)c2c1C(=O)c1ccccc1C2=O
Second: O=C(O)CNS(=O)(=O)c1ccccc1F
The melting point of the first is higher: 313 to 315 °C for the first, 170 to 172 °C for the second.

First: NC(=O)CNC(=O)c1cccc(O)c1
Second: O=C(Nc1ccc(O)cc1)c1ccccc1
The melting point of the first is lower: 179 to 181 °C for the first, 215 to 217 °C for the second.

First: NCc1ccc(-c2ccc3c(c2)CCCO3)cc1
Second: N#CCc1ccc(OCc2ccccc2N)cc1
The melting point of the first is lower: 89 to 91 °C for the first, 108 to 110 °C for the second.

First: O=C(CCl)NC(=O)NC1CCCCC1
Second: COc1ccc(NC(=O)CCl)cc1S(=O)(=O)N1CCCCC1
The melting point of the first is lower: 102 to 105 °C for the first, 142 to 144 °C for the second.

First: C=CCC(NC(=O)OCc1ccccc1)c1ccccc1 (stereo not drawn)
Second: Cc1nc(-c2ccc(NC(=O)OCC(F)(F)F)cc2)cc(=O)[nH]1
The melting point of the first is lower: 65 to 67 °C for the first, 246 to 248 °C for the second.

First: O=C(CN1CCNCC1)N1CCCCC1
Second: O=S(=O)(c1ccc(Cl)nc1)N1CCCC1
The melting point of the first is lower: 83 to 85 °C for the first, 149 to 151 °C for the second.

First: COc1cc(C=O)ccc1OCC#N
Second: Cc1ccc(SCCC(=O)O)cc1C
The melting point of the first is higher: 75 to 77 °C for the first, 35 to 37 °C for the second.

Compared with COc1ccc2[nH]cc(C(C)=O)c2c1, CCOC(=O)c1ccc(-n2ccnc2)c(N)c1 is lower in melting point: 206 to 208 °C for the first, 89 to 93 °C for the second.

First: Nc1cccnc1-n1ccnc1
Second: O=Cc1cc(F)cc2cccnc12
The melting point of the first is higher: 215 to 217 °C for the first, 114 to 116 °C for the second.

First: O=c1cc(CO)nc2sccn12
Second: NC(=O)Cc1csc(N)n1
The melting point of the first is higher: 193 to 195 °C for the first, 158 to 165 °C for the second.

First: c1ccc2sc(NCC3CCCO3)nc2c1 (stereo not drawn)
Second: CS(=O)c1ccccc1N (stereo not drawn)
The melting point of the first is lower: 130 to 132 °C for the first, 156 to 158 °C for the second.

O=C(O)c1ccn(-c2ccc(Cl)cc2Cl)n1 and Cc1cc(-n2c(C)cc(C(=O)O)c2C)no1 cannot be ordered by melting point: 179 to 181 °C for the first, 175 to 180 °C for the second.

First: O=C(Nc1cccc(N2CCOC2=O)c1)OCC(F)(F)F
Second: O=C(O)/C=C/c1ccc(N2CCCS2(=O)=O)cc1
The melting point of the first is lower: 152 to 154 °C for the first, 252 to 254 °C for the second.

First: COc1ccc(Nc2nc3cc(S(=O)(=O)N4CCOCC4)ccc3o2)cc1
Second: Clc1nnc(-c2cccs2)c2ccccc12
The melting point of the first is higher: 219 to 221 °C for the first, 128 to 130 °C for the second.

First: Nc1ccn(CCN2CCNC2=O)n1
Second: Nc1cc(-n2nnnc2C2CC2)ccc1F
The melting point of the first is higher: 118 to 120 °C for the first, 112 to 114 °C for the second.

First: O=c1[nH]c(S)nc2ccsc12
Second: O=C(O)c1c[nH]nn1
The melting point of the first is higher: 364 to 366 °C for the first, 212 to 214 °C for the second.

Compared with CC(C)(C)OC(=O)NCCCN, CC(C)(C)OC(=O)N1CC(O)CC1C(=O)O (stereo not drawn) is higher in melting point: 22 to 24 °C for the first, 145 to 147 °C for the second.

Cn1nc(C(F)(F)F)c(C(=O)O)c1C(F)(F)F showed a melting point of 127 to 129 °C.
